According to US20230414839A1, “COATED MEDICAL PRODUCT” (HEMOTEQ AG, priority 2020, published 2023):

Assays:
[1] = preparation and stability of crystal suspensions of microcrystalline rapamycin / everolimus in solutions of different tri-O-acylglycerols (Examples 2, 3); details: ethyl acetate/heptane solution; standing and temperature elevation
Excerpt: In the first step, solutions of tri-O-acylglycerols were first prepared in a solvent mixture. Subsequently, the solutions were combined with microcrystals of rapamycin and everolimus to investigate which tri-O-acylglycerols could be used to obtain stable crystal suspensions. The composition of the solvents and solvent mixture varied depending on the active agent used. The solutions and solvent mixtures prepared in the example apply to rapamycin (SIR) and everolimus (EVR). For the preparation of the solutions, an ethyl acetate/heptane solvent mixture was used here as an example.
To prepare the solutions, 770 mg of the respective tri-O-acylglycerol and optionally 150 mg BHT were dissolved in 14 g ethyl acetate (15.6 mL). Then, 57.4 g of n-heptane (84.4 mL) was added. Subsequently, homogenization and filtration were performed. The total volume of the solvent mixture is 100 mL.
To a precisely weighed amount of dry microcrystals of the previously prepared limus active agent, a defined amount of the solutions containing tri-O-acylglycerol and optionally antioxidant is carefully added. It was investigated whether the microcrystals of the limus active agent are not soluble in the solutions and whether suspensions are formed.
To check whether crystal suspension can be prepared, to each 200 mg of rapamycin in the form of microcrystals or 200 mg of everolimus in the form of microcrystals were carefully added 10 mL of one of the solutions 1a) to 1t) at room temperature. Three mixtures of 10 mL of solution for each solution were prepared. After combining, it was tested whether the microcrystals of limus active agents dissolved directly in the solutions. For solutions where there was no immediate dissolution of the microcrystals of the limus active agents, the suspensions of the solutions without antioxidant were allowed to stand for a period of 100 h and tested again to see if the microcrystals of the limus active agents dissolved.
Three mixtures of 10 mL of solution for each solution were prepared. After combining, it was tested whether the microcrystals of limus active agents dissolved directly in these solutions. For solutions where there was no immediate dissolution of the microcrystals of the limus active agents, the suspensions of the solutions without antioxidant were allowed to stand for a period of 100 hours and tested again to see if the microcrystals of the limus active agents dissolved.

[2] = cited from earlier work

## CCCCCCCCCCC(=O)OCC(COC(=O)CCCCCCCCCC)OC(=O)CCCCCCCCCC [Triundecanoylglycerol, 1,3-bis(undecanoyloxy)propan-2-yl-undecanoate]
[1]
  stability of the crystal suspension of microcrystalline everolimus and rapamycin with the tri-O-acylglycerol: remained stable after 24-48 hours and under temperature elevation
[2]
  solubility in water: practically insoluble in water
